Test results as given in patent US12116424B2, “Compounds and compositions for modulating Listeria virulence” (priority 2021, dated 2024).
Where a SMILES comes first, the peptide text is derived from it. Bridges are numbered along the chain shown (N, C = ends). [ ]: non-standard residue; d: D form. dDap = NC[C@@H](N)C(=O)O; Dap = NC[C@H](N)C(=O)O

Biological target: L. monocytogenes AgrC (Listeria monocytogenes serovar 1/2a, UniProt Q8YAR5)
Experiment: Fluorescence (agr-GFP) reporter agonism assay, ΔagrD reporter strain
Format: cell-based
Design: Emax: dose or concentration left out as unconfirmed
Conditions: for Emax: read-out: Max Activation Observed; for agonism activity (in words): ΔagrD reporter; for loss in potency: agonism, relative to native AIP
Source text: Construction of Listeria agr Reporter Strains. A gene block was designed and purchased from Integrated DNA Technologies to contain an EagI recognition site, the PII promoter of the agr system, the 3′ UTR of hly, super folder GFP, and a SaII recognition site. The gene block was digested with EagI and SaII, cloned into an EagI/SaII-cut pAM401 plasmid resulting in the plasmid pAM401-KW1, and then transformed into E. coli XL1-Blue competent cells. The insertion into pAM401 was confirmed using Kapa polymerase and primers DAP337 and DAP338, and additional confirmation via commercial sequencing. Purified plasmid was transformed into the conjugative E. coli S17 strain, which was used to conjugate to EGD-e and EGD-e ΔagrD to generate the agr-GFP reporter strains EGD-e:pAM401-KW1 and EGD-e ΔagrD:pAM401-KW1. Conjugation was verified using primers DAP337 and DAP338.
Fluorescence reporter assay protocol. For QS (agr) reporter assays, peptide stock solutions in DMSO (1 mM) were serially diluted in DMSO, and 2 μL of solution was added to each well in a black 96-well plate (polystyrene microtiter plate, Costar). Agonism assays utilized the ΔagrD reporter strain, with 2 μL of 100 μM AIP (final concentration 1 μM) as a positive control and 2 μL of DMSO as a negative control. Antagonism assays utilized the EGD-e reporter strain, with 2 μL of DMSO as a positive control. In both assays, wells containing only BHI media served as negative controls for normalization. An overnight culture of bacteria was diluted 1:50 in fresh BHI, then 198 μL were transferred to each well (excluding the media control wells). Plates were then incubated at 37° C. for 24 hours with shaking at 200 rpm. Fluorescence of GFP (excitation at 500 nm, emission at 540 nm) and OD600 of each well was measured using BioTek Synergy 2 plate reader. Measurements were processed by subtracting background fluorescence (BHI media), correcting by OD600, and the normalizing using the 1 μM AIP or the DMSO control for the agonism and antagonism assays, respectively. Non-linear regression curves were fitted to the data sets in GraphPad Prism 7 by using variable slope (four-parameter) dose-response analysis to obtain potency, efficacy, and statistical information about the activity of tested peptides. Each peptide was tested with three technical replicates and three biological replicates. All data derived from fluorescent reporter strains are represented with data points signifying the mean and error bars signifying the standard deviation from all replicates.
Preparation and Validation of Listeria agr Reporter Strains. In order to facilitate profiling the native AIP and its analogs for agr activity, L. monocytogenes agr GFP reporters were designed and constructed as described above (see Materials and General Methods). Briefly, a plasmid containing the agr promoter region upstream of gfp was transformed into wild-type (EGD-e) and ΔagrD L. monocytogenes strains. The wild-type reporter naturally produces its own AIP and is able to activate AgrC, which may subsequently phosphorylate AgrA for productive binding to DNA and triggering the production of GFP (FIG. 1A). The ΔagrD reporter, lacking the ability to produce its own AIP and thereby activate AgrC, is unable to trigger substantial production of GFP. However, adding exogenous AIP to the ΔagrD reporter results in an increase of fluorescence, indicating agr activity has been restored.

Chain of L. monocytogenes AgrC (Q8YAR5 entry or part of it): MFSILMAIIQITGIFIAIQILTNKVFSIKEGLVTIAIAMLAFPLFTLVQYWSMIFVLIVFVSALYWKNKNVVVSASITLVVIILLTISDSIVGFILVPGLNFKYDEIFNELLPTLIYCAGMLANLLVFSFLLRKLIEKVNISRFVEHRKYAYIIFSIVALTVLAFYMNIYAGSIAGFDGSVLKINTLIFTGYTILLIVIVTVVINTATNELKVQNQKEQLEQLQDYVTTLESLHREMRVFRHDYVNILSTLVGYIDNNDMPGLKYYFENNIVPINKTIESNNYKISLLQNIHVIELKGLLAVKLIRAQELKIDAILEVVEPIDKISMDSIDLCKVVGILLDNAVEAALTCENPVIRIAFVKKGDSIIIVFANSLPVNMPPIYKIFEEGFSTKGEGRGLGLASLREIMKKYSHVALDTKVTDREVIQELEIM

SMILES	Emax [%]	agonism activity (in words)	loss in potency
CSCC[C@@H]1NC(=O)[C@H](Cc2ccccc2)NC(=O)[C@@H](NC(=O)[C@H](CCCCN)NC(=O)[C@@H](N)CCCCN)CSC(=O)[C@H](C(C)C)NC(=O)[C@H](Cc2ccccc2)NC1=O [7-mer A2K, K-K-(C-F-M-F-V)] (H-KKCFMFV; thioester 3-C; N-terminus assumed)	64.8	–	–
CSCC[C@@H]1NC(=O)[C@H](Cc2ccccc2)NC(=O)[C@H](NC(=O)[C@H](C)NC(=O)[C@@H](N)CCCCN)CSC(=O)[C@H](C(C)C)NC(=O)[C@H](Cc2ccccc2)NC1=O [7-mer C3dC, K-A-(dC-F-M-F-V)] (H-KA[dC]FMFV; thioester 3-C; N-terminus assumed)	7.08	–	–
CSCC[C@H]1NC(=O)[C@H](Cc2ccccc2)NC(=O)[C@H](NC(=O)[C@H](C)NC(=O)[C@@H](N)CCCCN)CSC(=O)[C@H](C(C)C)NC(=O)[C@H](Cc2ccccc2)NC1=O [7-mer C3dC/M5dM, K-A-(dC-F-dM-F-V)] (H-KA[dC]F[dM]FV; thioester 3-C; N-terminus assumed)	7.89	–	–
CSCC[C@H]1NC(=O)[C@H](Cc2ccccc2)NC(=O)[C@@H](NC(=O)[C@H](C)NC(=O)[C@@H](N)CCCCN)CSC(=O)[C@H](C(C)C)NC(=O)[C@H](Cc2ccccc2)NC1=O [7-mer M5dM, K-A-(C-F-dM-F-V)] (H-KACF[dM]FV; thioester 3-C; N-terminus assumed)	71.9	–	–
CSCC[C@@H]1NC(=O)[C@H](Cc2ccccc2)NC(=O)[C@@H](NC(=O)[C@@H](N)CCCCN)CSC(=O)[C@H](C(C)C)NC(=O)[C@H](Cc2ccccc2)NC1=O [AIP A1K, K-(C-F-M-F-V)] (H-KCFMFV; thioester 2-C; N-terminus assumed)	80	partial agonists with slightly diminished agonistic activity	–
CSCC[C@@H]1NC(=O)[C@H](Cc2ccccc2)NC(=O)[C@H](NC(=O)[C@@H](N)CCCCN)CSC(=O)[C@H](C(C)C)NC(=O)[C@H](Cc2ccccc2)NC1=O [AIP A1K/C2dC, K-(dC-F-M-F-V)] (H-K[dC]FMFV; thioester 2-C; N-terminus assumed)	10.2	–	–
CSCC[C@H]1NC(=O)[C@H](Cc2ccccc2)NC(=O)[C@@H](NC(=O)[C@@H](N)CCCCN)CSC(=O)[C@H](C(C)C)NC(=O)[C@H](Cc2ccccc2)NC1=O [AIP A1K/M4dM, K-(C-F-dM-F-V)] (H-KCF[dM]FV; thioester 2-C; N-terminus assumed)	74.1	–	–
CSCC[C@@H]1NC(=O)[C@H](Cc2ccccc2)NC(=O)[C@@H](NC(=O)[C@@H]2CCCN2)CSC(=O)[C@H](C(C)C)NC(=O)[C@H](Cc2ccccc2)NC1=O [AIP A1P, P-(C-F-M-F-V)] (H-PCFMFV; thioester 2-C; N-terminus assumed)	76.8	partial agonists with slightly diminished agonistic activity	–
CSCC[C@@H]1NC(=O)[C@H](Cc2ccccc2)NC(=O)[C@@H](NC(=O)[C@@H](N)[C@@H](C)O)CSC(=O)[C@H](C(C)C)NC(=O)[C@H](Cc2ccccc2)NC1=O [AIP A1T, T-(C-F-M-F-V)] (H-TCFMFV; thioester 2-C; N-terminus assumed)	88.1	partial agonists with slightly diminished agonistic activity	–
CSCC[C@@H]1NC(=O)[C@H](Cc2ccccc2)NC(=O)[C@@H](NC(=O)[C@@H](N)C(C)C)CSC(=O)[C@H](C(C)C)NC(=O)[C@H](Cc2ccccc2)NC1=O [AIP A1V, V-(C-F-M-F-V)] (H-VCFMFV; thioester 2-C; N-terminus assumed)	109	maintained the full activity of the parent AIP with enhanced potency	–
CSCC[C@@H]1NC(=O)[C@H](Cc2ccccc2)NC(=O)[C@@H](NC(=O)[C@@H](C)N)CSC(=O)[C@H](C(C)C)NC(=O)[C@H](Cc2ccccc2)NC1=O [AIP A1dA, dA-(C-F-M-F-V)] (H-[dA]CFMFV; thioester 2-C; N-terminus assumed)	58.8	–	–
CSCC[C@@H]1NC(=O)[C@H](Cc2ccccc2)NC(=O)[C@@H](NC(=O)[C@H](C)N)CNC(=O)[C@H](C(C)C)NC(=O)[C@H](Cc2ccccc2)NC1=O [AIP C2Dap, A-(Dap-F-M-F-V)] (H-A[Dap]FMFV; lactam 2-C; N-terminus assumed)	92.9	largely retains the activation activity of the native AIP	10 fold
CSCC[C@@H]1NC(=O)[C@H](Cc2ccccc2)NC(=O)[C@H](NC(=O)[C@H](C)N)CSC(=O)[C@H](C(C)C)NC(=O)[C@H](Cc2ccccc2)NC1=O [AIP C2dC, A-(dC-F-M-F-V)] (H-A[dC]FMFV; thioester 2-C; N-terminus assumed)	41	lost a substantial amount of agonism activity	three-fold
CSCC[C@H]1NC(=O)[C@H](Cc2ccccc2)NC(=O)[C@H](NC(=O)[C@H](C)N)CSC(=O)[C@H](C(C)C)NC(=O)[C@H](Cc2ccccc2)NC1=O [AIP C2dC/M4dM, A-(dC-F-dM-F-V)] (H-A[dC]F[dM]FV; thioester 2-C; N-terminus assumed)	35.7	–	–
CSCC[C@@H]1NC(=O)[C@H](Cc2ccccc2)NC(=O)[C@H](NC(=O)[C@H](C)N)CNC(=O)[C@H](C(C)C)NC(=O)[C@H](Cc2ccccc2)NC1=O [AIP C2dDap, A-(Dap-F-M-F-V)] (H-A[dDap]FMFV; lactam 2-C; N-terminus assumed)	14.3	little or no agr activation	–
CSCC[C@@H]1NC(=O)[C@H](Cc2c[nH]cn2)NC(=O)[C@@H](NC(=O)[C@H](C)N)CSC(=O)[C@H](C(C)C)NC(=O)[C@H](Cc2ccccc2)NC1=O [AIP F3H, A-(C-H-M-F-V)] (H-ACHMFV; thioester 2-C; N-terminus assumed)	12.4	–	–
CSCC[C@@H]1NC(=O)[C@H](CC(C)C)NC(=O)[C@@H](NC(=O)[C@H](C)N)CSC(=O)[C@H](C(C)C)NC(=O)[C@H](Cc2ccccc2)NC1=O [AIP F3L, A-(C-L-M-F-V)] (H-ACLMFV; thioester 2-C; N-terminus assumed)	37.6	–	–
CSCC[C@@H]1NC(=O)[C@H](Cc2c[nH]c3ccccc23)NC(=O)[C@@H](NC(=O)[C@H](C)N)CSC(=O)[C@H](C(C)C)NC(=O)[C@H](Cc2ccccc2)NC1=O [AIP F3W, A-(C-W-M-F-V)] (H-ACWMFV; thioester 2-C; N-terminus assumed)	60.6	–	–
CSCC[C@@H]1NC(=O)[C@H](Cc2ccc(O)cc2)NC(=O)[C@@H](NC(=O)[C@H](C)N)CSC(=O)[C@H](C(C)C)NC(=O)[C@H](Cc2ccccc2)NC1=O [AIP F3Y, A-(C-Y-M-F-V)] (H-ACYMFV; thioester 2-C; N-terminus assumed)	47.4	–	–
CSCC[C@@H]1NC(=O)[C@H](Cc2ccccc2)NC(=O)[C@@H](NC(=O)[C@H](C)N)CSC(=O)[C@H](C(C)C)NC(=O)[C@H](Cc2c[nH]cn2)NC1=O [AIP F5H, A-(C-F-M-H-V)] (H-ACFMHV; thioester 2-C; N-terminus assumed)	7.13	–	–
CSCC[C@@H]1NC(=O)[C@H](Cc2ccccc2)NC(=O)[C@@H](NC(=O)[C@H](C)N)CSC(=O)[C@H](C(C)C)NC(=O)[C@H](CC(C)C)NC1=O [AIP F5L, A-(C-F-M-L-V)] (H-ACFMLV; thioester 2-C; N-terminus assumed)	64.8	–	–
CSCC[C@@H]1NC(=O)[C@H](Cc2ccccc2)NC(=O)[C@@H](NC(=O)[C@H](C)N)CSC(=O)[C@H](C(C)C)NC(=O)[C@H](Cc2c[nH]c3ccccc23)NC1=O [AIP F5W, A-(C-F-M-W-V)] (H-ACFMWV; thioester 2-C; N-terminus assumed)	85.8	–	–
CSCC[C@@H]1NC(=O)[C@H](Cc2ccccc2)NC(=O)[C@@H](NC(=O)[C@H](C)N)CSC(=O)[C@H](C(C)C)NC(=O)[C@H](Cc2ccc(O)cc2)NC1=O [AIP F5Y, A-(C-F-M-Y-V)] (H-ACFMYV; thioester 2-C; N-terminus assumed)	44.4	–	–
